According to patent publication US12011449B2, “Therapeutic combinations comprising a c-RAF inhibitor” (Novartis AG, priority 2016, dated 2024):
pIC50: −log10 of the molar value. Like-named read-outs stand apart in the source and are kept apart here.

What was measured:
HuP-T4 = assay: Proliferation, CellTiter-Glo 72 h, HuP-T4; type: cell-based; details: Homo sapiens, HuP-T4, Pancreas, BRAF WT, KRAS G12V
Description: (§1) Note that activity is especially strong on cell lines that harbor at least one mutation in BRAF or RAS.

[1] = test system: Calu-6 (KRAS Q61K), HCT116 (KRAS G13D); assay: Cell-based proliferation, Calu-6 and HCT116; details: Homo sapiens
A375 [2] = assay: Proliferation, CellTiter-Glo 72 h, A375; type: cell-based; details: Homo sapiens, A-375, A375, Melanoma, BRAF V600E, RAS WT
Description: as §1

A375/MEK1 Q56P = assay: Anti-proliferative effect in mechanistic A375 models, A375/MEK1 Q56P; type: cell-based; details: Homo sapiens, A-375, doxycycline-induced, 72 hours
Experimental: (§2) To investigate the activity of Compound A in BRAF V600 mutant melanoma cells refractory to BRAF and/or MEK inhibitors, the anti-proliferative activity of Compound A in the mechanistic models derived from the BRAF V600 melanoma cell line A375 expressing mutations of MEK1/2, NRAS, or a splice variant of BRAF was evaluated.

[3] = test system: Calu-6 (KRAS Q61K) xenograft; assay: Calu-6 xenograft in nude mice; type: in vivo
Experimental: (§3) Female nude tumor bearing Calu6 mice, n=6 per group were randomized into treatment groups on day 17 following tumor implantation, when the average tumor volume was 180 mm3. Treatments with compound A were initiated on Day 17 and continued for 16 days. Dosing volume was 10 mL/kg. Tumor volumes were collected at the time of randomization and twice weekly thereafter for the study duration.
(§4) Regressions were also achieved in a second human NSCLC model, NCI-H358, at the 200 mg/kg QD dose in mice and in the human ovarian Hey-A8 xenograft at doses as low as 30 mg/kg QD in mice.

HCT116 = assay: Proliferation, CellTiter-Glo 72 h, HCT116; type: cell-based; details: Homo sapiens, HCT-116, HCT116, Colorectal, BRAF WT, KRAS G13D
Description: as §1

KRASmt NSCLC models = assay: Human KRAS-mutant xenograft models, overall statements; type: in vivo
Experimental: (§5) SCID beige female tumor-bearing NCI-H358 mice, n=8 per group, were randomized into 3 groups 14 days post tumor cell inoculation with an average tumor volume range of 259.44-262.47 mm^3.
as §3
Nude female mice tumor bearing NCI-H358, n=8 per group, were randomized into 2 groups with an average tumor volume range of 275.74 mm3.

WM2664 = assay: Proliferation, CellTiter-Glo 72 h, WM2664; type: cell-based; details: Homo sapiens, WM 266-4, WM2664, Melanoma, BRAF V600D, RAS WT
Description: as §1

A375/MEK1 C121S = assay: Anti-proliferative effect in mechanistic A375 models, A375/MEK1 C121S; type: cell-based; details: Homo sapiens, A-375, doxycycline-induced, 72 hours
Experimental: as §2

[4] = test system: non-small cell lung cancer (NSCLC); assay: Phase I dose finding study, tumor response (RECIST); type: in vivo, human; details: one NSCLC subject, 1200 mg QD, preliminary
Experimental: The recommended starting dose and regimen of Compound A single agent in this study is 100 mg QD orally based on the preclinical safety, tolerability data, PK/PD data obtained in preclinical studies, as well as exploratory human efficacious dose range projection. […] For maximum flexibility of dosing, Compound A may be prepared as 50 mg and/or 100 mg tablets for oral administration. A proposed formulation for clinical use of Compound A includes Compound A combined with one or more excipients selected from hydroxypropylmethylcellulose (Hypromellose), colloidal silicon dioxide, microcrystalline cellulose, polyvinylpyrrolidone (Povidone), and magnesium stearate, and can be prepared in the form of tablets for oral administration, suitably containing 50 mg or 100 mg of Compound A. This was further confirmed by preliminary results obtained from the clinical trial.

[5] = test system: NCI-H358 (KRAS G12C) xenograft; assay: NCI-H358 xenograft in mice; type: in vivo; details: 200 mg/kg QD
Experimental: as §5, §4

[6] = test system: Calu-6 (KRAS Q61K) xenograft; assay: Calu-6 xenograft in nude rats; type: in vivo
NCI-H2073 = assay: Proliferation, CellTiter-Glo 72 h, NCI-H2073; type: cell-based; details: Homo sapiens, NCI-H2073, NSCLC, BRAF WT, RAS WT
Description: as §1

[7] = test system: A375 derivatives expressing mutations of MEK1/2, NRAS, or a splice variant of BRAF; assay: IC50 shift of resistant A375 models versus parental A375; type: cell-based, human
Experimental: as §2

HCC827 = assay: Proliferation, CellTiter-Glo 72 h, HCC827; type: cell-based; details: Homo sapiens, HCC827, NSCLC, BRAF WT, RAS WT
Description: as §1

PSN1 = assay: Proliferation, CellTiter-Glo 72 h, PSN1; type: cell-based; details: Homo sapiens, PSN1, Pancreas, BRAF WT, KRAS G12R
Description: as §1

IPC298 = assay: Proliferation, CellTiter-Glo 72 h, IPC298; type: cell-based; details: Homo sapiens, IPC-298, IPC298, Melanoma, BRAF WT, NRAS Q61L
Description: as §1

A375/BRAFp61-V600E = assay: Anti-proliferative effect in mechanistic A375 models, A375/BRAFp61-V600E; type: cell-based; details: Homo sapiens, A-375, doxycycline-induced, 72 hours
Experimental: as §2

[8] = test system: Calu-6 human NSCLC xenograft; assay: Calu-6 NSCLC subcutaneous xenograft, single agents and combination; type: in vivo; details: for durability of tumor response: under treatment, 42 days post dosing
Experimental: Calu-6 NSCLC tumors were established in athymic female mice by subcutaneous injection of 10 million cells in 50% Matrigel™ into the flank of each mouse. […] A-B) Tumor volumes of treatment groups vs. days post randomization. C) Mean percent change in body weight from initial.
Combined treatment with Compound A and Compound B led to increased depth and durability of tumor response compared to either single agent in the human NSCLC xenograft Calu-6. […] Combining Compound A dosed at 30 mg/kg qd with Compound B dosed at either 50 mg/kg qd or 75 mg/kg q2d achieved 66% and 51% regressions, respectively, 17 days post dosing. In addition to the increased depth of response, the combination of Compound A and Compound B also led to an increased durability of response.

PC3 = assay: Proliferation, CellTiter-Glo 72 h, PC3; type: cell-based; details: Homo sapiens, PC-3, PC3, Prostate, BRAF WT, RAS WT
Description: as §1

A375/MEK2 Q60P = assay: Anti-proliferative effect in mechanistic A375 models, A375/MEK2 Q60P; type: cell-based; details: Homo sapiens, A-375, doxycycline-induced, 72 hours
Experimental: as §2

A375/NRAS Q61K = assay: Anti-proliferative effect in mechanistic A375 models, A375/NRAS Q61K; type: cell-based; details: Homo sapiens, A-375, doxycycline-induced, 72 hours
Experimental: as §2

[9] = test system: DUSP6 (dual specificity phosphatase 6); assay: DUSP6 pharmacodynamic biomarker in vivo; details: subject receiving a dosage associated with efficacious plasma levels
Description: In addition, an efficacious dosage can be determined by monitoring biomarkers indicative of MAP kinase pathway inhibition.

HeyA8 = assay: Proliferation, CellTiter-Glo 72 h, HeyA8; type: cell-based; details: Homo sapiens, HEY A8, HeyA8, Ovarian, BRAF G464E, KRAS G12D
Description: as §1

[10] = test system: human ovarian Hey-A8 xenograft; assay: Hey-A8 ovarian xenograft in mice; type: in vivo; details: doses as low as 30 mg/kg QD
Experimental: as §4

[11] = Clinical PK of Compound A tablets, once daily, fasted subjects; type: in vivo, human; details: plasma; for AUC: day 1 of dosing, read-out: Mean plasma exposure over the dose interval of 24 hours (AUCtau); for Cmax: oral tablets, fasted subjects, read-out: Maximum plasma concentration (Cmax)
Experimental: Compound A was formulated with hydroxypropylmethylcellulose/Hypromellose, colloidal silicon dioxide, microcrystalline cellulose, polyvinylpyrrolidone/Povidone and magnesium stearate, and formed into tablets containing about 50 mg of Compound A. A number of tablets sufficient to provide a desired dosage were administered once daily to fasted subjects. Subjects were treated at doses of 100 mg once per day, or 200 mg once per day. Serial blood samples for PK assessments were collected up to 48 hours after the first dose of Compound A (Cycle 1 Day 1), and up to 24 hours after multiple doses (Cycle 1 Day 15). […] Mean plasma exposure over the dose interval of 24 hours (AUCtau) on day 1 of dosing was 5679 hr·ng/ml and 10019 hr·ng/ml after the 100 mg and 200 mg doses of Compound A, respectively. […] As this study is on-going, all data presented are considered preliminary.

Calu-6 = assay: Proliferation, CellTiter-Glo 72 h, Calu-6; type: cell-based; details: Homo sapiens, Calu-6, NSCLC, BRAF WT, KRAS Q61K
Description: as §1

A375 [12] = assay: Anti-proliferative effect in mechanistic A375 models, parental A375; type: cell-based; details: Homo sapiens, A-375, 72 hours, CellTiter-Glo
Experimental: as §2

A375/MEK1 E203K = assay: Anti-proliferative effect in mechanistic A375 models, A375/MEK1 E203K; type: cell-based; details: Homo sapiens, A-375, doxycycline-induced, 72 hours
Experimental: as §2

TCC-PAN2 = assay: Proliferation, CellTiter-Glo 72 h, TCC-PAN2; type: cell-based; details: Homo sapiens, TCC-PAN2, Pancreas, BRAF WT, KRAS G12R
Description: as §1

AsPC-1 (KRAS^G12D) = assay: 3 day proliferation assay, AsPC-1; type: cell-based; details: Homo sapiens, ASPC1, 72 h, read-out: IC50 cell growth
Calu6 (KRAS^Q61K) = assay: 3 day proliferation assay, Calu6; type: cell-based; details: Homo sapiens, Calu-6, 72 h, read-out: IC50 cell growth
PSN1 (KRAS^G12R) = assay: 3 day proliferation assay, PSN1; type: cell-based; details: Homo sapiens, 72 h, read-out: IC50 cell growth
HeyA8 (KRAS^G12D) = assay: 3 day proliferation assay, HeyA8; type: cell-based; details: Homo sapiens, HEY A8, 72 h, read-out: IC50 cell growth

SMILES: Cc1ccc(NC(=O)c2ccnc(C(F)(F)F)c2)cc1-c1cc(OCCO)nc(N2CCOCC2)c1 [Compound A, N-(3-(2-(2-hydroxyethoxy)-6-morpholinopyridin-4-yl)-4-methylphenyl)-2-(trifluoromethyl)isonicotinamide]
- pIC50 (HuP-T4): 6.19
- pIC50 [1]: 5.92 to 6.70
- pIC50 (A375 [2]): 6.62
- pIC50 (A375/MEK1 Q56P): 5.94
- anti-tumor effect ([3]; mice, 30 mg/kg QD): Tumor stasis
- anti-tumor effect ([3]; nude mice, 100, 200, and 300 mg/kg once daily (QD)): regressions
- pIC50 (HCT116): 6.33
- single agent anti-tumor activity (KRASmt NSCLC models; H358, Calu6, H727 models, oral daily): showed single agent activity
- tolerability (body weight loss) (KRASmt NSCLC models; in all cases (KRAS-mutant xenograft models)): well tolerated as judged by lack of significant body weight loss
- pIC50 (WM2664): 6.35
- pIC50 (A375/MEK1 C121S): 5.94
- partial response according to RECIST [4]: −35%
- anti-tumor effect [5]: Regressions
- anti-tumor effect ([6]; nude rats, 75 and 150 mg/kg QD): regressions
- anti-tumor effect ([6]; rats, 35 mg/kg QD): Tumor stasis
- pIC50 (NCI-H2073): 4.74
- increase in IC50 in resistant models [7]: 2-3 fold
- predicted half-life (Predicted human PK): ~9 h
- pIC50 (HCC827): < 4.70
- pIC50 (PSN1): 6.17
- pIC50 (IPC298): 6.60
- pIC50 (A375/BRAFp61-V600E): 6.14
- T/C ([8]; Compound A 30 mg/kg qd, oral, 17 days post dosing): 26%
- durability of tumor response [8]: progressed under treatment
- pIC50 (PC3): < 4.70
- pIC50 (A375/MEK2 Q60P): 5.95
- pIC50 (A375/NRAS Q61K): 6.02
- in vivo levels of DUSP6 [9]: drop
- pIC50 (HeyA8): 6.68
- anti-tumor effect [10]: Regressions
- AUC ([11]; human, oral, 100 mg): 5680 ng·h/mL
- AUC ([11]; human, oral, 200 mg): 10000 ng·h/mL
- half-life ([11]; human, oral, in patients): 1380 to 1440 min
- Cmax ([11]; human, single 100 mg dose): 447 ng/mL
- Cmax ([11]; human, single 200 mg dose): 889 ng/mL
- accumulation ratio ([11]; once daily dosing of 100 mg): 1.8
- pIC50 (Calu-6): 5.82
- pIC50 (A375 [12]): 6.38
- pIC50 (A375/MEK1 E203K): 5.98
- pIC50 (TCC-PAN2): 6.38

SMILES: CNC[C@@H](NC(=O)c1ccc(-c2nc([C@H]3CC[C@H](O)[C@@H](F)C3)cnc2N)cc1F)c1cc(F)cc(Br)c1 [Compound B, 4-(3-amino-6-((1S,3S,4S)-3-fluoro-4-hydroxycyclohexyl)pyrazin-2-yl)-N-((S)-1-(3-bromo-5-fluorophenyl)-2-(methylamino)ethyl)-2-fluorobenzamide]
- pIC50 (AsPC-1 (KRAS^G12D)): > 6.00
- pIC50 (Calu6 (KRAS^Q61K)): > 6.00
- pIC50 (PSN1 (KRAS^G12R)): > 6.00
- regressions ([8]; Compound B 50 mg/kg qd, oral, 17 days post dosing): 22%
- T/C ([8]; Compound B 75 mg/kg q2d, oral, 17 days post dosing): 4%
- durability of tumor response [8]: progressed under treatment
- pIC50 (HeyA8 (KRAS^G12D)): > 6.00

SMILES: CCCS(=O)(=O)Nc1ccc(F)c(C(=O)c2c[nH]c3ncc(-c4ccc(Cl)cc4)cc23)c1F [Vemurafenib]
- pIC50 (A375/MEK1 Q56P): 5.02
- pIC50 (A375/MEK1 C121S): 5.06
- pIC50 (A375/BRAFp61-V600E): 5.07
- pIC50 (A375/MEK2 Q60P): 5.28
- pIC50 (A375/NRAS Q61K): 5.03
- pIC50 (A375 [12]): 7.18
- pIC50 (A375/MEK1 E203K): 5.25

SMILES: Cn1cnc2c(F)c(Nc3ccc(Br)cc3Cl)c(C(=O)NOCCO)cc21 [Selumetinib]
- pIC50 (A375/MEK1 Q56P): 5.27
- pIC50 (A375/MEK1 C121S): 5.63
- pIC50 (A375/BRAFp61-V600E): < 5.00
- pIC50 (A375/MEK2 Q60P): 5.32
- pIC50 (A375/NRAS Q61K): 5.26
- pIC50 (A375 [12]): 7.44
- pIC50 (A375/MEK1 E203K): 5.74
